According to patent US6340692B1, “Injectable anesthetic” (priority 1999, dated 2002):

Assays:
male chinchilla rabbits = experiment: Epidural anesthesia in rabbits; format: in vivo; conditions: for effective duration of epidural anesthesia: chinoxicaine 2.0% solution, Lidocaine as comparison
Procedure: A study of epidural anesthesia was conducted on male chinchilla rabbits. The epidural puncture was made in the area of the third and fourth lumbar vertebrae by means of a Tuohi-Peridur needle. A 2.0% solution of chinoxicaine was injected into the epidural area in a volume determined in accordance with the following formula: [formula]

sciatic nerve = experiment: Sciatic nerve conduction anesthesia, Camaugis-Tekman method; format: in vivo, rats; conditions: for duration of the anesthesia: 0.2 mL
Procedure: A study of sciatic nerve conduction anesthesia in rats was conducted in accordance with the Camaugis-Tekman method. Prior to injection of the anesthesia, the rat motor activity was evaluated by applying a compression to the animal's feet. Then, a 0.2 mL volume of chinoxicaine solution was injected into the sciatic nerve area of the pronated lower extremity. With the application of a subsequent compression to the its feet, the animal's reaction was evaluated by observing if the animal pulled apart its toes in a ‘fan-shaped’ manner when suspended by its tail. It was determined that both 1.0% and 2.0% concentrations of chinoxicaine solutions produced fast, deep, and prolonged anesthesia. The anesthesia reached fill extent within 2.0±0.3 minutes, with either concentration.

[1] = Conduction anesthesia, some models (general statements); format: in vivo
male guinea pigs = experiment: Infiltration anesthesia, Beulbring-Wade method; format: in vivo
Procedure: The pharmacological activity of chinoxicaine has been evaluated using the characteristics of: i) strength of anesthesia, ii) latent period, and iii) duration of anesthesia. A study of infiltration anesthesia was conducted according to the Beulbring-Wade method on male guinea pigs. The median effective concentration (EC50) was 0.1%. Latent period was about 1.5 minutes. The duration of deep anesthesia was: i) 25 minutes for the 0.1% solution, ii) 140.5 minutes for a 0.25% solution, iii) 310.8 minutes for a 0.5% solution, and iv) 313.8 minutes for a 1.0% solution. On the basis of specific pharmacological activity data, described in greater detail below, chinoxicaine is preferably provided as either a 0.25% or 0.5% solution in 250 mL bottles for use in infiltration anesthesia, and as a 1.0% or 2.0% solution in 5 mL ampoules for conduction and epidural anesthesia. In alternative embodiments, the anesthesia solution includes a 0.9% solution of sodium chloride.

white non-breeding rats = experiment: Conduction anesthesia, injection under the tail skin; format: in vivo; conditions: 1.0 mL under the tail skin
Procedure: A study of conduction anesthesia was carried out on white non-breeding rats weighing 180 to 220 grams. The anesthetic solution was injected under the tail skin on four sides in a 1.0 mL volume at concentrations ranging from 0.1% to 1.0%. Duration of the anesthetic solution was 120.3±7.1 minutes for the 0.1% concentration, 300.5±15.5 minutes for a 0.25% concentration, 306.0±16.2 minutes for a 0.5% concentration, and 320.0±13.1 minutes for the 1.0% concentration.

[2] = infiltration anesthesia, male guinea pigs

CCN(CC)CC(=O)Nc1c(C)cccc1C [Lidocaine, reference compound]
effective duration of epidural anesthesia (male chinchilla rabbits; epidural): about 100 minutes

CCCn1c(=O)c(C(=O)NCCN(CC)CC)c(O)c2ccccc21.Cl [chinoxicaine, hydrochloride diethylaminoethylamide 1-propyl-2 oxy-4-hydroxyquinolin-3-carbonic acid]
duration of the anesthesia (sciatic nerve; 1.0% concentration): 138.0 ± 8.9 min
duration of the anesthesia (sciatic nerve; 2.0% concentration): 205.0 ± 12.6 min
time until anesthesia reached full extent (sciatic nerve; either 1.0% or 2.0% concentration, 0.2 mL into sciatic nerve area): ≤ 2.0 ± 0.3 min
effective duration relative to Trimecaine or Lidocaine ([1]; 0.5% solution, conduction applications): as much as twice
increase in activity over Trimecaine ([1]; conduction anesthesia): comparable increase
duration of deep anesthesia (male guinea pigs; 0.1% solution): 25 min
duration of deep anesthesia (male guinea pigs; 0.25% solution): 140.5 min
duration of deep anesthesia (male guinea pigs; 0.5% solution): 310.8 min
effectiveness relative to Lidocaine or Azacaine (male guinea pigs; 0.5% solution, long infiltration applications): ≤ 2.5 times
duration of deep anesthesia (male guinea pigs; 1.0% solution): 313.8 min
increase in activity as compared to Lidocaine (male guinea pigs; infiltration anesthesia): two-fold increase
increase in activity over Trimecaine (male guinea pigs; infiltration anesthesia): comparable increase
Latent period (male guinea pigs; [2]): about 1.5 minutes
median effective concentration (EC50) (male guinea pigs; [2]): 0.1%
Duration of conduction anesthesia (white non-breeding rats; 0.1% concentration): 120.3 ± 7.1 min
Duration of conduction anesthesia (white non-breeding rats; 0.25% concentration): 300.5 ± 15.5 min
Duration of conduction anesthesia (white non-breeding rats; 0.5% concentration): 306.0 ± 16.2 min
Duration of conduction anesthesia (white non-breeding rats; 1.0% concentration): 320.0 ± 13.1 min
time from injection to deep and prolonged anesthesia (male chinchilla rabbits; 2.0% solution, epidural): ≤ 5.0 min
effective duration of epidural anesthesia (male chinchilla rabbits; epidural): at least 200 minutes
increase in activity as compared to Lidocaine (male chinchilla rabbits; epidural anesthesia): two-fold increase
duration of long and deep epidural and peridermal anesthesia (male chinchilla rabbits; rabbits): about 270 minutes
